Measured values published in paper PMC7608132 (Acta Pharmacologica Sinica, 2020).
Like-named read-outs stand apart in the source and are kept apart here. Each block holds one compound with its values, some of them ahead of it.

How the values were obtained:
[1] = rifampin; cited from earlier work
[2] = HLMs, 3 µM alflutinib, selective inhibitor at the concentration of b13

- Suppression of the production of AST5902 (CYP enzymes in HLMs): 98%
Compound: Nn1nnc2ccccc21 [ABT, 1-aminobenzotriazole]

- Suppression of the production of AST5902 (CYP enzymes in HLMs; [2]): 45%
Compound: Nc1ccc(S(=O)(=O)Nc2ccnn2-c2ccccc2)cc1 [Sulfaphenazole, sulfaphenazole]

Further lines, the compound ahead of its results:

Compound: O=c1c(O)c(-c2ccc(O)c(O)c2)oc2cc(O)cc(O)c12 [Quercetin, quercetin]
- Suppression of the production of AST5902 (CYP enzymes in HLMs; [2]): 68%

Compound: CO[C@H]1/C=C/O[C@@]2(C)Oc3c(C)c(O)c4c(O)c(c(/C=N/N5CCN(C)CC5)c(O)c4c3C2=O)NC(=O)/C(C)=C\C=C\[C@H](C)[C@H](O)[C@@H](C)[C@@H](O)[C@@H](C)[C@H](OC(C)=O)[C@@H]1C [Rifampin]
- In vivo concentrations [1]: 10 to 18 µM

Compound: Cc1ncsc1CCCl [chlormethiazole]
- Effect on the formation of alflutinib metabolites (CYP enzymes in HLMs; HLMs, α-naphthoflavone 2 µM, chlormethiazole 24 µM): no significant effects

Compound: O=c1cc(-c2ccccc2)oc2c1ccc1ccccc12 [α-Naphthoflavone, α-naphthoflavone]
- Effect on the formation of alflutinib metabolites (CYP enzymes in HLMs): no significant effects
